Structures can show the parent of a compound that is named as a salt.

Results on seven compounds are retold here after patent publication US9339038B2, “Herbicidal composition” (priority 2012, dated 2016).

Format in all cases: in vivo
In data set [1] the test system is green kyllinga (Kyllinga brevifolia Rottb. var. leiolepis). Nature of the data set: Test Example 1: foliar treatment of potted green kyllinga in heading stage, visual growth inhibition rate. The source says: When the herbicidal activity in a case where two active ingredients are combined, is larger than the simple sum of the respective herbicidal activities of the two active ingredients (the expected activity), it is called a synergistic effect. The activity expected by the combination of two active ingredients can be calculated as follows (Colby S. R., “Weed”, vol. 15, p. 20-22, 1967). E=(α+β)−(αβ)/100 where α: growth inhibition rate when treated with x (g/ha) of herbicide X,
β: growth inhibition rate when treated with y (g/ha) of herbicide Y,
E: growth inhibition rate expected when treated with x (g/ha) of herbicide X and y (g/ha) of herbicide Y.
That is, when the actual growth inhibition rate (measured value) is larger than the growth inhibition rate by the above calculation (calculated value), the activity by the combination can be regarded as showing a synergistic effect.
Upland field soil was put into a 1/1,000,000 ha pot, and rhizomes of green kyllinga (Kyllinga brevifolia Rottb. var. leiolepis) were planted. On the 59th day after planting, to the green kyllinga in heading stage, predetermined amounts of EC formulation containing pyridate as an active ingredient (tradename: Pyridate 600EC, manufactured by BCP), WG formulation containing flazasulfuron as an active ingredient (tradename: SHIBAGEN DF, manufactured by Ishihara Sangyo Kaisha, Ltd.), WG formulation containing trifloxysulfuron Na salt as an active ingredient (tradename: Monument WG, manufactured by Syngenta Japan K.K.), SC formulation containing nicosulfuron as an active ingredient (tradename: ONEHOPE NYUZAI, manufactured by Ishihara Sangyo Kaisha, Ltd.), WG formulation containing halosulfuron-methyl as an active ingredient (tradename: INPOOL DF, manufactured by Nissan Chemical Industries, Ltd.) and WG formulation containing chlorimuron-ethyl as an active ingredient (tradename: ATTRACTIVE, manufactured by MARUWA Biochemical Co., Ltd.) were diluted with water in an amount corresponding to 2,000 L/ha, and applied for foliar treatment by a small sprayer.
On the 14th day after treatment, the state of growth of the green kyllinga was visually observed to determine the growth inhibition rate (%) in accordance with the following evaluation standard. The growth inhibition rate (%) (measured value) and the growth inhibition rate (%) (calculated value) calculated by the Colby's formula are shown in Table 1.
Growth inhibition rate (%)=0 (equivalent to the non-treated area) to 100 (complete kill)

Data set [2] relates to summer grass (Digitaria ciliaris (Retz.) Koeler). Nature of the data set: Test Example 8: foliar treatment of potted summer grass, visual growth inhibition rate on 14th day. The settings on record: read-out: Growth inhibition rate (%) of summer grass Measured value. The text has this:
Upland field soil was put into a 1/1,000,000 ha pot, and seeds of summer grass (Digitaria ciliaris (Retz.) Koeler) were sown.

Data set [3] has as its system green kyllinga (Kyllinga brevifolia Rottb. var. leiolepis). Nature of the data set: Test Example 10: foliar treatment of green kyllinga (height 6 to 7 cm), visual growth inhibition rate. Particulars: 27th day after treatment. The method, then: (§1) Upland field soil was put into a 1/1,000,000 ha pot, and rhizomes of green kyllinga (Kyllinga brevifolia Rottb. var. leiolepis) were planted. When the green kyllinga reached a height of from 6 to 7 cm, predetermined amounts of Lentagran WP (tradename) and WG formulation containing as an active ingredient amicarbazone having the same mode of action as pyridate (tradename: Dinamic, manufactured by Arysta Life Science) were diluted with water (in an amount corresponding to 2,000 L/ha) and applied for foliar treatment by a small sprayer. Separately, upland field soil was put into a 1/300,000 ha pot, and turf of manilagrass (Zoysia matrella (L.) Merr.) was put. After the manilagrass took root, predetermined amounts of Lentagran WP (tradename) and Dinamic (tradename) were diluted with water (in an amount corresponding to 2,000 L/ha) and applied for foliar treatment by a small sprayer.
(§2) On the 27th day after treatment, the state of growth of green kyllinga was visually observed, and on the 28th day after treatment, the state of growth of the manilagrass was visually observed, to determine the growth inhibition rate (%).

Data set [4] concerns manilagrass (Zoysia matrella (L.) Merr.). Nature of the data set: Test Example 10: foliar treatment of manilagrass turf, visual growth inhibition rate (safety for turfgrass). Particulars: for Growth inhibition rate (%) of manilagrass: foliar, 28th day after treatment. How it is done:
as §1, §2

Data set [5] has as its system summer grass (Digitaria ciliaris (Retz.) Koeler). Nature of the data set: Test Example 7: foliar treatment of potted summer grass, visual growth inhibition rate on 7th day. The settings on record: 7th day after treatment. The method, then:
Upland field soil was put into a 1/1,000,000 ha pot, and seeds of summer grass (Digitaria ciliaris (Retz.) Koeler) were sown. When the summer grass reached 4.0 to 5.0-leaf stage, predetermined amounts of EC formulation containing pyridate as an active ingredient and Monument WG (tradename) were diluted with water (in an amount corresponding to 300 L/ha) and applied for foliar treatment by a small sprayer.
On the 7th day after treatment, the state of growth of the summer grass was visually observed to determine the growth inhibition rate (%). The growth inhibition rate (%) (measured value) and the growth inhibition rate (%) calculated in the same manner as in the above Test Example 1 are shown in Table 7.

In data set [6] the test system is prickly sida (Sida spinosa L.). Nature of the data set: Test Example 2: foliar treatment of potted prickly sida, visual growth inhibition rate. The settings on record: 14th day after treatment, read-out: Growth inhibition rate (%) of prickly sida Measured value. How it is done: Upland field soil was put into a 1/1,000,000 ha pot, and seeds of prickly sida (Sida spinosa L.) were sown. When the prickly sida reached 5.5 to 5.8-leaf stage, predetermined amounts of a wettable powder containing pyridate as an active ingredient (tradename: Lentagran WP, manufactured by BCP) and ONEHOPE NYUZAI (tradename) were diluted with water in an amount of corresponding to 1,000 L/ha and applied for foliar treatment by a small sprayer.
On the 14th day after treatment, the state of growth of the prickly sida was visually observed to determine the growth inhibition rate (%). The growth inhibition rate (%) (measured value) and the growth inhibition rate (%) calculated in the same manner as in the above Test Example 1 are shown in Table 2.

For data set [7], the system named is persian speedwell (Veronica persica Poir.). Nature of the data set: Test Example 6: foliar treatment of potted persian speedwell, visual growth inhibition rate. Particulars: 14th day after treatment, read-out: Growth inhibition rate (%) of persian speedwell Measured value. The method, then:
Upland field soil was put into a 1/1,000,000 ha pot, and seeds of persian speedwell (Veronica persica Poir.) were sown. When the persian speedwell reached 4.3 to 5.2-leaf stage, predetermined amounts of EC formulation containing pyridate as an active ingredient and ONEHOPE NYUZAI (tradename) were diluted with water (in an amount corresponding to 300 L/ha) and applied for foliar treatment by a small sprayer.
On the 14th day after treatment, the state of growth of the persian speedwell was visually observed to determine the growth inhibition rate (%). The growth inhibition rate (%) (measured value) and the growth inhibition rate (%) calculated in the same manner as in the above Test Example 1 are shown in Table 6.

Data set [8] concerns green kyllinga (Kyllinga brevifolia Rottb. var. leiolepis). In words: Test Example 3: foliar treatment of green kyllinga at 5-leaf stage, visual growth inhibition rate. Particulars: Cyperus brevifolius, 21st day after treatment. How it is done:
Upland field soil was put into a 1/1,000,000 ha pot, and rhizomes of green kyllinga (Kyllinga brevifolia Rottb. var. leiolepis) were planted. When the green kyllinga reached 5-leaf stage, a predetermined amount of EC formulation containing pyridate as an active ingredient was diluted with water (in an amount corresponding to 2,000 L/ha) and applied for foliar treatment by a small sprayer.
On the 21st day after treatment, the state of growth of the green kyllinga was visually observed to determine the growth inhibition rate (%).

The test system is the same in data set [9]. Nature of the data set: Test Example 4: single or repeated foliar treatment of green kyllinga (height 5 to 7 cm), visual growth inhibition rate. The settings on record: Cyperus brevifolius, 21st day after first treatment. The method, then: Upland field soil was put into a 1/1,000,000 ha pot, and rhizomes of green kyllinga (Kyllinga brevifolia Rottb. var. leiolepis) were planted. When the green kyllinga reached a height of from 5 to 7 cm, a predetermined amount of EC formulation containing pyridate as an active ingredient was diluted with water (in an amount corresponding to 2,000 L/ha) and applied for foliar treatment by a small sprayer. Further, on the 7th day after the foliar treatment, second treatment was carried out in the same manner on part of the green kyllinga.
On the 21st day after the first treatment, the state of growth of the green kyllinga was visually observed to determine the growth inhibition rate (%).

For data set [10] the test system is unchanged. Nature of the data set: Test Example 5: autumn foliar treatment of green kyllinga, visual growth inhibition rate on 220th day. The settings on record: Cyperus brevifolius, 220th day after treatment. How it is done: Upland field soil was put into a 1/300,000 ha pot, and rhizomes of green kyllinga (Kyllinga brevifolia Rottb. var. leiolepis) were planted. In the autumn of the next year, a predetermined amount of EC formulation containing pyridate as an active ingredient was diluted with water (in an amount corresponding to 2,000 L/ha) and applied for foliar treatment by a small sprayer.
On the 220th day after treatment, the state of growth of the green kyllinga was visually observed to determine the growth inhibition rate (%).

[11] abbreviates: Cyperus brevifolius, read-out: Growth inhibition rate (%) of green kyllinga Measured value.

`COC(=O)c1c(Cl)nn(C)c1S(=O)(=O)NC(=O)Nc1nc(OC)cc(OC)n1` [Halosulfuron-methyl, halosulfuron-methyl]: in data set [1] (setting [11]), the inhibition at 375 g/ha was 10%. The inhibition at 150 g/ha in [2] came to 0%.
Regarding `CCOC(=O)c1ccccc1S(=O)(=O)NC(=O)Nc1nc(Cl)cc(OC)n1` [Chlorimuron-ethyl, chlorimuron-ethyl], in data set [1] (setting [11]), the inhibition at 100 g/ha amounted to 18%.
As to `CC(C)c1nn(C(=O)NC(C)(C)C)c(=O)n1N` [Amicarbazone, amicarbazone], the “Growth inhibition rate (%) of green kyllinga” value in data set [3] (dose 400 g/ha) is listed as 30%; in data set [3] (dose 800 g/ha), 86%. In data set [4] (dose 800 g/ha), the “Growth inhibition rate (%) of manilagrass” value is on record as 30%.
For the compound `COc1cc(OC)nc(NC(=O)NS(=O)(=O)c2ncccc2OCC(F)(F)F)n1` [Trifloxysulfuron Na salt], the “Growth inhibition rate (%) of green kyllinga Measured value” in data set [1] (dose 45 g/ha, 14th day after treatment) is reported as 15%. Besides, the “Growth inhibition rate (%) of summer grass Measured value” in data set [5] (dose 100 g/ha) is reported as 40%.
Consider `COc1cc(OC)nc(NC(=O)NS(=O)(=O)c2ncccc2C(=O)N(C)C)n1` [Nicosulfuron, 2-(4,6-dimethoxypyrimidin-2-ylcarbamoylsulfamoyl)-N,N-dimethylnicotinamide], for which, in [1] (Cyperus brevifolius, dose 80 g/ha, 14th day after treatment, read-out: Growth inhibition rate (%) of green kyllinga Measured value), the inhibition at 80 g/ha is 15%. Further, the inhibition at 15 g/ha in data set [6] (dose 15 g/ha) came to 30%. The inhibition at 100 g/ha in [7] (dose 100 g/ha) came to 5%.
Take `CCCCCCCCSC(=O)Oc1cc(Cl)nnc1-c1ccccc1` [Pyridate, O-6-chloro-3-phenylpyridazin-4-yl S-octylthiocarbonate]: in data set [1] (Cyperus brevifolius, dose 500 g/ha, 14th day after treatment, read-out: Growth inhibition rate (%) of green kyllinga Measured value), the inhibition at 500 g/ha was 18%. Moreover, the inhibition at 2000 g/ha amounted to 50% in [1] (Cyperus brevifolius, dose 2000 g/ha, 14th day after treatment, read-out: Growth inhibition rate (%) of green kyllinga Measured value); 100% in data set [10] (dose 2000 g/ha); 76% in data set [3] (Cyperus brevifolius, dose 2000 g/ha). Moreover, the inhibition at 300 g/ha in data set [6] (dose 300 g/ha) came to 38%; in data set [7] (dose 300 g/ha), 70%; in data set [5] (Digitaria ciliaris, dose 300 g/ha, read-out: Growth inhibition rate (%) of summer grass Measured value) it was 8%. Also, the inhibition at 1200 g/ha in data set [8] (dose 1200 g/ha) amounted to 90%; in [9] (1st treatment 1200 g/ha, 2nd treatment 1200 g/ha on 7th day), 100%. Besides, the inhibition at 2400 g/ha was found to be 100% in [8] (dose 2400 g/ha) and 87% in data set [9] (1st treatment 2400 g/ha, no 2nd treatment). The compound also returned an inhibition at 3600 g/ha in data set [9] (1st treatment 3600 g/ha, no 2nd treatment) of 89%. Further, the inhibition at 4000 g/ha in data set [10] (dose 4000 g/ha) turned out to be 100%; in data set [3] (Cyperus brevifolius, dose 4000 g/ha) it was 94%. For the same compound, in data set [2] (dose 3000 g/ha, 14th day after treatment), the inhibition at 3000 g/ha was found to be 50%. In addition, the “Growth inhibition rate (%) of manilagrass” value in [4] (dose 2000 g/ha) is given as 5%; in data set [4] (dose 4000 g/ha), 15%; in data set [4] (dose 8000 g/ha), 15%. In data set [4] (practical doses, summary of Table 9), the safety for turfgrass entry is “high safety for turfgrass”.
On to `COc1cc(OC)nc(NC(=O)NS(=O)(=O)c2ncccc2C(F)(F)F)n1` [Flazasulfuron, 1-(4,6-dimethoxypyrimidin-2-yl)-3-(3-trifluoromethyl-2-pyridylsulfonyl)urea], for which the inhibition at 50 g/ha in data set [1] (Cyperus brevifolius, dose 50 g/ha, 14th day after treatment, read-out: Growth inhibition rate (%) of green kyllinga Measured value) was 33%.
